Reference: patent US10934280B2, “Condensed thiophene derivatives useful as NaPi-IIb inhibitors” (Eli Lilly and Company, priority 2016, dated 2021)

What was measured:
[1] = tested on: normal rats; experiment: Four-day in vivo tolerability/toxicity in normal rats; conditions: administered in vivo to normal rats for four days
Description: Compounds of the invention, for instance Example 1, show advantageous pharmacological properties, such as potency, in vivo distribution, in vivo efficacy, and favorable lack of toxicity in preclinical testing.

[2] = molecular target: T1, NaPi-IIb (Mus musculus, UniProt Q9DBP0); experiment: Inhibition of NaPi-IIb in vivo: plasma counts after oral radioactive phosphate in mice; conditions: PVP-VA solid dispersion formulation in water, mice
T1 construct: from tissue; host or cells: living C57Bl6 mice (gastrointestinal tract)
T1 sequence (Q9DBP0 1-697): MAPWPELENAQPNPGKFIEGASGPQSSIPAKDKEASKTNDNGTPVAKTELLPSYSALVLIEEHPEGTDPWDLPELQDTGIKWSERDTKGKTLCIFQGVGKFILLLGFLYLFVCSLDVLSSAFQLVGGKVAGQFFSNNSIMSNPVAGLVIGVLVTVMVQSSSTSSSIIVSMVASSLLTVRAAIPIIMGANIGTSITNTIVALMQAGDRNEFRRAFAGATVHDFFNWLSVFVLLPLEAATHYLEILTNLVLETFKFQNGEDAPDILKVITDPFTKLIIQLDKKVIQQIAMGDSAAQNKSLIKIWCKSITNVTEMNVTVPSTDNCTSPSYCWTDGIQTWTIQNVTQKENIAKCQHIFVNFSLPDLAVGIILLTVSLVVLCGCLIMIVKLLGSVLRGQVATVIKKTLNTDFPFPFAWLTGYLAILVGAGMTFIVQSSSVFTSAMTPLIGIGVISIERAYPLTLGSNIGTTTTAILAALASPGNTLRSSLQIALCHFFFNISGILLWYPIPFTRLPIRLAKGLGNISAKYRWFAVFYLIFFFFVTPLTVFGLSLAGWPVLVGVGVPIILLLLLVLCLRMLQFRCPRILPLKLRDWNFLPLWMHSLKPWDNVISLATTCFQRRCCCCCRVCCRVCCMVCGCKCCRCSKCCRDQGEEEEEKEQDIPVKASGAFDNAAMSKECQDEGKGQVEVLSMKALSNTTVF
Method: For test article and vehicle control preparation, add vehicle, 20% hydroxypropyl-beta-cyclodextrin (HPBCD) in water, to the test article. Sonicate to reduce particle size in an ultrasonic water bath as needed. If necessary, use a polytron to break down any visible particles in test article solution. The pH of the vehicle control is adjusted to 8.0 to 8.5 with 1N NaOH.
Radioactive phosphate preparation: Prepare a 16.25 mM Na2HPO4 solution using 0.9% saline as the vehicle. Mix until a clear solution is formed. Adjust pH to approximately 7.4. Filter using a sterile 0.2 μm polyethersulfone membrane. For the final preparation of the radioactive phosphate dosing solution, add 0.5 μl of stock H3^3PO4 per 1 mL of Na2HPO4. Mix thoroughly then sterile filter the H3^33PO4+Na2HPO4 solution using a 0.2 μm polyethersulfone membrane prior to dosing. Measure the radioactivity of each sample with the scintillation counter. If the DPMs are between 100,000 and 150,000 proceed with dosing.
In-vivo protocol: Male C57B16 male mice at the age of about 8-9 wks old are fasted for 16 hrs the day before the study. They are assigned to treatment groups based on body weight on the day of study. Mice are dosed orally with either the test article, prepared as described above, or vehicle control at a 10 mis/kg dose volume. Fifteen minutes later, the radioactive phosphate dosing solution is given by oral gavage. Fifteen minutes later, blood is collected by orbital bleed. Plasma is prepared and 50 μl of EDTA plasma from each mouse is mixed with 10 ml of scintillation fluid and the counts determined by scintillation counting. The effect of the test article is determined by comparing the counts in the plasma from the test article treated animals to counts in the plasma of the vehicle control treated animals [Percent Inhibition=[…]]. Percent inhibition is measured at 30 minutes post administration of the compound or vehicle, and at 15 minutes post administration of the labelled phosphate. Percent Inhibition for indicated Examples are illustrated in Table 3 below.
Alternative vehicles, for example poly-1-vinylpyrrolidone-co-vinyl acetate (PVP-VA), at varying concentrations, may be used. Example 1 can be assayed in PVP-VA, and for this study the compound is formulated as described in the solid dispersion preparation of Example 1, followed by dissolving in water then dosing by oral gavage. The vehicle control is water with varying concentrations of PVP-VA, matching the concentration found in the highest dose of Example 1, the lowest dose of Example 1, and an intermediate dose of Example 1. No effect of varying PVP-VA on the uptake of radiolabeled phosphate is observed over several studies, and thus all the vehicles are averaged to calculate percent inhibition.

[3] = tested on: gastric emptying; experiment: Effect on gastric emptying in vivo (radiolabeled phosphate recovered from stomach); parameters: species or system mice
Method: The effect of a test compound on gastric emptying can be assessed by dosing the compound and radiolabeled phosphate in a manner similar to that used to assess a compound's ability to inhibit NaPi-IIb in vivo. After bleeding the mice, they were sacrificed and their stomachs harvested. The harvested stomachs are digested in 10 ml of 1N NaOH overnight, and the recovered radiolabeled phosphate DPMs determined by scintillation counting. The compound mediated effect on the rate of gastric emptying is determined by comparing the dpms in the stomach of animals treated with compound, to that of animals treated with vehicle.

[4] = molecular target: T2, murine NaPi-IIb (Mus musculus, UniProt Q9DBP0); experiment: Inhibition of 33P uptake in mouse NaPi-IIb T-REX-CHO stable cell line; format: cell-based; conditions: 60 min at RT, geometric mean (SD), read-out: m NaPi-IIb rel IC50 (nM), (SD)
T2 construct: expressed in transfected cells
T2 sequence (Q9DBP0 1-697): T1 sequence (Q9DBP0 1-697)
Method: Inhibition of ^33P uptake is measured in human and mouse NaPi-IIb T-REX™-CHO stable cell lines. cDNA for NaPi-IIb is subcloned in plasmid SLC34A2 pcDNA5/TO (human) and SLC34A2 pcDNA5/TO (mouse) and stable cell lines are generated from clonal isolation for both human and mouse respectively. Mouse and human stable lines are maintained in continuous culture in growth media (Dulbecco's Modified Eagle Medium: Nutrient Mixture F-12 (3:1), 10% Heat Inactivated FBS, 1% penicillin/streptomycin/FUNGIEZONE® (HYCLONE™), 20 mM HEPES, 250 μg/mL hygromycin, 5 μg/mL blasticidin). Cells are harvested from T225 cell culture flasks (CORNING®) using 0.25% Trypsin, and plated in 96 well CYTOSTAR-T™ scintillating microplates (Amersham Systems) at 40,000 cells/well in 100 μL of growth media plus 100 ng/mL of tetracycline. Cell plates are incubated overnight at 37° C. and 5% C02. The next day, compounds are serially diluted using one to three dilutions in 100% DMSO. Cell plates may remain in the incubator until ready to be assayed. A cell plate is removed from the incubator and media removed. Cells are washed 3 times with 200 μL assay buffer (137 mM NaCl, 5.4 mM KCl, 2.8 mM CaCl2), 1.2 mM MgSO4, and 14 mM Tris-HCl buffer, pH˜7.5), removing buffer in between washes. Serially diluted compounds in DMSO are further diluted 50 fold in assay buffer and 50 μL added to the CYTOSTAR-T™ assay plate, immediately followed by the addition of 50 μL of ^33P solution (PERKIN-ELMER®, Walton, Mass.; 0.05 μCi/50 μL). CYTOSTAR-T™ assay plates are covered with foil to protect from light and incubated for 60 min at RT. After the 60 min incubation, 100 μL of a stop solution (assay buffer+400 μM Phloretin) is added to the assay plate to stop ^33P uptake. The plate is immediately read on a Wallac MICROBETA® Trilux liquid scintillation counter and luminometer after stop solution is added with 1 minute count per well. Each plate may be processed separately and staggered in time so there may be no delay in counting after stop solution is added. Percent inhibition at all concentrations tested (final assay concentrations 100-0.005 μM) are calculated relative to 1% DMSO (minimum effect), and the effect of 100 μM of a fully efficacious NaPi-IIb inhibitor (maximum effect). IC50 values were calculated using a 4 parameter logistic curve fitting equation. The numbers presented are the geometric means with standard deviation (SD) calculated where n is the number of runs. Thus. Table 1 describes the relative IC50 values for Examples 1-28 against human NaPi-IIb and murine NaPi-IIb, respectively.

[5] = molecular target: T3, human NaPi-IIb (Homo sapiens, UniProt O95436); experiment: Inhibition of 33P uptake in human NaPi-IIb T-REX-CHO stable cell line; format: cell-based; conditions: 60 min at RT, geometric mean (SD), read-out: h NaPi-IIb rel IC50 (nM), (SD)
T3 construct: expressed in transfected cells
T3 sequence (O95436 1-690): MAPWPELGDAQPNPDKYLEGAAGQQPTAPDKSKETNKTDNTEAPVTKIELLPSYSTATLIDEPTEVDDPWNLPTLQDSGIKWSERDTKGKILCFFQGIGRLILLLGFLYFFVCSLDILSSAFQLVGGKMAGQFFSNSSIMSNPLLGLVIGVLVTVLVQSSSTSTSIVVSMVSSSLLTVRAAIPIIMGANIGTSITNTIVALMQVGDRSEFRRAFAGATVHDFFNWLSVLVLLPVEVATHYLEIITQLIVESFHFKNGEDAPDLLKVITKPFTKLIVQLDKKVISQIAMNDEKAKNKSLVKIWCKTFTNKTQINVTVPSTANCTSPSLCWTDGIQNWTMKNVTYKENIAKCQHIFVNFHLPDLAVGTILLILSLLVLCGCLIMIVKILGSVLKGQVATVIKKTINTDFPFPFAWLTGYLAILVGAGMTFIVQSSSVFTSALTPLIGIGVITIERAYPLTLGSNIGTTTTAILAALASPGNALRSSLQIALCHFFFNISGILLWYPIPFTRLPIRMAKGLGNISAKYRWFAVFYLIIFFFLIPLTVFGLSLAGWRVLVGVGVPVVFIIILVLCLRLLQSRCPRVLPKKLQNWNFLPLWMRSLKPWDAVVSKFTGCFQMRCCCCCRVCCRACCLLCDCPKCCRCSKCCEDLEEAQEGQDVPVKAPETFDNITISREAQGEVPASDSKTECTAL
Method: Inhibition of ^33P uptake is measured in human and mouse NaPi-IIb T-REX™-CHO stable cell lines. cDNA for NaPi-IIb is subcloned in plasmid SLC34A2 pcDNA5/TO (human) and SLC34A2 pcDNA5/TO (mouse) and stable cell lines are generated from clonal isolation for both human and mouse respectively. Mouse and human stable lines are maintained in continuous culture in growth media (Dulbecco's Modified Eagle Medium: Nutrient Mixture F-12 (3:1), 10% Heat Inactivated FBS, 1% penicillin/streptomycin/FUNGIEZONE® (HYCLONE™), 20 mM HEPES, 250 μg/mL hygromycin, 5 μg/mL blasticidin). […] Cell plates may remain in the incubator until ready to be assayed. […] The plate is immediately read on a Wallac MICROBETA® Trilux liquid scintillation counter and luminometer after stop solution is added with 1 minute count per well. […] Percent inhibition at all concentrations tested (final assay concentrations 100-0.005 μM) are calculated relative to 1% DMSO (minimum effect), and the effect of 100 μM of a fully efficacious NaPi-IIb inhibitor (maximum effect). IC50 values were calculated using a 4 parameter logistic curve fitting equation. The numbers presented are the geometric means with standard deviation (SD) calculated where n is the number of runs. […]

| Structure (SMILES) | tolerability [1] | toxicity [1] | Percent Inhibition ([2]; 0.03 mg/kg oral gavage) | Percent Inhibition ([2]; 0.1 mg/kg oral gavage) | Percent Inhibition ([2]; 0.3 mg/kg oral gavage) | Percent Inhibition ([2]; 1 mg/kg oral gavage) | Percent Inhibition ([2]; 3 mg/kg oral gavage) | Percent Inhibition ([2]; 10 mg/kg oral gavage) | Percent Inhibition ([2]; 30 mg/kg oral gavage) | margin of NaPi-IIb inhibition with respect to inhibition of in vivo gastric emptying [3] | IC50 [4] | IC50 [5] |
| --- | --- | --- | --- | --- | --- | --- | --- | --- | --- | --- | --- | --- |
| CC1(C)CN(C(=O)NCCCCO)CCN1Cc1cccc(C(=O)Nc2sc3c(c2C(=O)Nc2cc(F)c(CCc4ccc(C(=O)O)cc4)c(F)c2)CCCC3)c1 [Example 1, 4-[2-[2,6-difluoro-4-[[2-[[3-[[4-(4-hydroxybutylcarbamoyl)-2,2-dimethyl-piperazin-1-yl]methyl]benzoyl]amino]-4,5,6,7-tetrahydrobenzothiophene-3-carbonyl]amino]phenyl]ethyl]benzoic Acid] | generally well tolerated | advantageous lack of toxicity | 0.75% | 30.61% | 51.21% | 66.90% | 68.71% | 75.64% | 75.83% | surprisingly advantageous margin | – | – |
| CN1CCN(CC(=O)N2C3CCC2CN(Cc2cccc(C(=O)Nc4sc5c(c4C(=O)Nc4cc(F)c(CCc6ccc(C(=O)O)cc6)c(F)c4)CCCC5)c2)C3)CC1 [Example 26, 4-[2-[2,6-difluoro-4-[[2-[[3-[[8-[2-(4-methylpiperazin-1-yl)acetyl]-3,8-diazabicyclo[3.2.1]octan-3-yl]methyl]benzoyl]amino]-4,5,6,7-tetrahydrobenzothiophene-3-carbonyl]amino]phenyl]ethyl]benzoic Acid] | – | – | – | – | – | – | – | – | – | – | 15.3 nM | 2.4 nM |
